Results on six compounds are retold here after ChEMBL document CHEMBL1143968, “Lead identification of acetylcholinesterase inhibitors-histamine H3 receptor antagonists from molecular modeling” (Bioorg Med Chem, 2008).

In one experiment the target is Acetylcholinesterase (Homo sapiens, UniProt P22303). Briefly: Inhibition of AChE.
The target of a further experiment is Histamine H3 receptor (Homo sapiens, UniProt Q9Y5N1). Nature of the experiment: Inhibition of histamine H3 receptor.
Sequence of Histamine H3 receptor (Q9Y5N1 whole entry): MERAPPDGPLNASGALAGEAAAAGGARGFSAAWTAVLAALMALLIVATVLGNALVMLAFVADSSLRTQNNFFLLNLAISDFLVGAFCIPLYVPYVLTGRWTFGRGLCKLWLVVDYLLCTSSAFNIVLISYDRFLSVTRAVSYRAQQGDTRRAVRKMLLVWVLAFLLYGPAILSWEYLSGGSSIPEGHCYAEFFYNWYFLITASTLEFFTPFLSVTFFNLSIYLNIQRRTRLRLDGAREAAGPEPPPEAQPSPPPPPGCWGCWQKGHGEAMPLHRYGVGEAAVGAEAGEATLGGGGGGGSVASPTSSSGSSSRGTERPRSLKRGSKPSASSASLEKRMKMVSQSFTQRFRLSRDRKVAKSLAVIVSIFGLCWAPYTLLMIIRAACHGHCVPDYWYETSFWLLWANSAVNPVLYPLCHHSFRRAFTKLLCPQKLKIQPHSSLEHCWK

Sequence of Acetylcholinesterase (P22303 whole entry): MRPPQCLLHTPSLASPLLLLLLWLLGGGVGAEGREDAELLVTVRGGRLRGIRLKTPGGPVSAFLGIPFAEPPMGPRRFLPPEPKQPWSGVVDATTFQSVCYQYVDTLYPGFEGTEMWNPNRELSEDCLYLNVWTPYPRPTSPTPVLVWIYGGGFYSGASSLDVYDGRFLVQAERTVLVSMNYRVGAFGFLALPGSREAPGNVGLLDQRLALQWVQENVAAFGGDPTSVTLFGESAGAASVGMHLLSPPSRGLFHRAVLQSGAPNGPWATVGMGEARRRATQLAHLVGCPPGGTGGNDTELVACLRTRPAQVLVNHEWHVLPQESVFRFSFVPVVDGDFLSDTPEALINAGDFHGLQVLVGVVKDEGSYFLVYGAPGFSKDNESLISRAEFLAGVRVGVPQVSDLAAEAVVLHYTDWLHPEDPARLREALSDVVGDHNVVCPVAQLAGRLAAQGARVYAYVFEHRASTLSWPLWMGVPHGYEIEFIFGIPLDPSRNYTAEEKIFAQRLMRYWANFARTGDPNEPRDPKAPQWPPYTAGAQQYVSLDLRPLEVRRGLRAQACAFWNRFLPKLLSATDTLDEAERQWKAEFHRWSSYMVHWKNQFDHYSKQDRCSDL

In the case of `C[N+](C)(C)CCCCCCCCCC[N+](C)(C)C` [DECAMETHONIUM], the half-inhibitory concentration (IC50) at Acetylcholinesterase came to 5900 nM; at Histamine H3 receptor, 820 nM.

The compound `COc1cc2c(cc1OC)C(=O)C(CC1CCN(Cc3ccccc3)CC1)C2` (stereo not given) [DONEPEZIL] came in with an IC50 at Histamine H3 receptor of 350 nM.

Turning to `OCC1CCN(Cc2ccc(OCCCN3CCCCC3)cc2)CC1`, the IC50 came to 1100 nM against Acetylcholinesterase and 1.3 nM at Histamine H3 receptor.

As to `c1cc(OCCCN2CCCCC2)ccc1CN1CCCCC1` [JNJ-5207852], the midpoint of inhibition against Acetylcholinesterase, the IC50, lay at 3200 nM.

For `OC1CCN(Cc2ccc(OCCCN3CCCCC3)cc2)CC1`, the values for the half-inhibitory concentration (IC50) at Acetylcholinesterase and against Histamine H3 receptor were 2300 nM and 0.72 nM, respectively.

Take `OCCC1CCN(Cc2ccc(OCCCN3CCCCC3)cc2)CC1`: the 50% inhibitory concentration (IC50) on Acetylcholinesterase was 350 nM; against Histamine H3 receptor, 0.98 nM.

One may read the IC50 as the point on the concentration scale where inhibition reaches its midpoint. High values mean lower potency, low ones higher potency.
